These results are taken from patent US8022051B2, “Composition for protection and improvement of skin, or reinforcing skin barrier function comprising phosphatidylserine” (Doosan Corporation, priority 2004, dated 2011).

One experiment relates to hairless mouse. Put plainly: Skin barrier function restoration (TEWL) after tape stripping in hairless mice, oral administration. Type of experiment: in vivo. Conditions: 0.8 mg/mouse once a day for three weeks, up to 24 hours, compared to mouse not given phosphatidylserine, FIG. 9. The procedure: In this example 9, it was examined a difference of water loss restoration rates in a group to which the phosphatidylserine was administrated and a group to which the phosphatidylserine was not administrated, using the hairless mouse, so as to examine an effect of the phosphatidylserine on the skin barrier function restoring reinforcement.
First, a solution in which the phosphatidylserine (DS-PS, Doosan, Korea) was dispersed in a tertiary distilled water in a concentration of 400 mg/100 ml was used as a test material. It was prepared 10 hairless induced mice which were […] (Japan SLC Inc., Shizuoka, Japan). The solution was orally administrated to 5 mice of them in a dosage of 0.8 mg phosphatidylserine/mouse once a day and the tertiary distilled water was orally administrated to the other 5 mice. The medication period was three weeks. After that, it was measured a water evaporation loss for both sides of the backs of the hairless mice using a TEWL apparatus (TEWAMETER, TW210, Germany) (normal skin: about 10±2 g/hm^2). A Scotch tape was attached to the same positions and then cleared. […] After that, it was measured the water evaporation losses as time went by (i.e., before the injury, immediately after the injury, after 6 hours, after 9 hours and after 24 hours) to check the restoration rate of the skin barrier.

For another experiment, the system named is fibroblasts. Put plainly: Expression level of pro-collagen and MMP-1 in fibroblasts (western blot). Format: cell-based. Conditions: 20 μM, FIG. 10. The method, then:
In order to examine a skin aging-suppressing efficacy of the phosphatidylserine of the invention, it was quantitatively measured the expression amounts of the pro-collagen and the matrix metalloproteinase (MMP). It was tried a protein-antibody reaction through an electrophoresis (western blot) as the quantitative method. The cultivation was performed in manners of irradiating the ultraviolet to the fibroblasts (a gift from Seoul National University, Korea) and otherwise. After that, it was treated with the phosphatidylserine (20 μM), the cell was collected to extract the protein parts. The extracted protein was dissolved in the sodium dodecyl sulfate (SDS) and then subject to the electrophoresis on the SDS-polyacrylamide gel. […] An amount of the protein was measured using the color.
(In western blotting, separated proteins are transferred to a membrane and probed.)

For the substance phosphatidylserine, in the experiment with hairless mouse, the “restoration rate of the skin barrier function (TEWL)” value is “higher restoration rate”. Moreover, the “expression amount of MMP-1” value with fibroblasts is reported as “decreased”. For the same substance, the “expression amount of pro-collagen” value with fibroblasts (with ultraviolet irradiation and otherwise) was “increased”.
